Results from PMC11432330, “Novel Drug-like HsrA Inhibitors Exhibit Potent Narrow-Spectrum Antimicrobial Activities against Helicobacter pylori” (International Journal of Molecular Sciences, 2024).

System: H. pylori 26695
Assay: In vivo inhibition of HsrA: RNA-Seq transcriptomic analysis of exposed cells
Type: cell-based, Helicobacter pylori
Conditions: for log2 Fold Change: exposed to lethal concentrations vs control
Description: Bacterial growth from three blood agar plates of H. pylori ATCC 700392 (aka 26695) incubated for 48 h at 37 °C under microaerobic conditions was aseptically resuspended in BHI + FBS and adjusted to 10^7 CFU/mL. BHI broth cultures were incubated microaerobically at 37 °C for 24 h. […] At this time, bacterial growth was stopped by adding 1.5 mL ice-cold RNA stop solution (95% absolute ethanol, 5% acid-buffered phenol) and subsequently incubated on ice. Control samples were exposed to the same amount of DMSO instead of the inhibitor. Helicobacter cells from all samples were harvested by centrifugation (4000 rpm at 4 °C for 10 min), then the pellets were quickly frozen by immersion in liquid nitrogen and stored at −80 °C.
RNA-Seq analysis was performed by GENEWIZ (Azenta Life Sciences, Leipzig, Germany). Frozen cell pellets from two biological replicates of each treatment condition were properly submitted to GENEWIZ in dry ice. RNA-Seq libraries were prepared according to standard protocols via rRNA depletion, RNA fragmentation and random priming, reverse transcription, 5’-phosphorylation and dA-tailing of cDNAs, adaptor ligation, and PCR enrichment. Once the quality of each library was confirmed, they were sequenced on an Illumina NovaSeq 6000 (Illumina, San Diego, CA, USA) with 150-bp paired-ends. Raw sequence reads were filtered to remove possible adapter sequences and nucleotides with poor quality using Trimmomatic v.0.36 [105]. The trimmed reads were subsequently mapped to the H. pylori strain 26695 reference genome NC_000915.1 available on NCBI, by using the Bowtie2 aligner v.2.2.6 [106]. Unique gene hit counts were calculated by using featureCounts from the Subread package v.1.5.2. Only unique reads that fell within the gene regions were counted. Using DESeq2 [108], a comparison of the gene expression between the control and treated groups of samples was performed. The Wald test was used to generate p-values and log2 fold changes. Genes with an adjusted p-value < 0.05 and absolute log2 fold change >1 were considered as differentially expressed genes (DEGs) for each comparison. The RNA-Seq data generated in this study have been deposited in ArrayExpress with the accession number E-MTAB-14255.

## NC(=NOC(=O)Nc1ccc(Cl)cc1)c1csc([N+](=O)[O-])c1 [Ligand V, N′-{[(4-chloroanilino)carbonyl]}oxy-5-nitrothiophene-3-carboximidamide]
Gene HP0450
  log2 Fold Change: -0.486
Gene HP0462
  log2 Fold Change: -0.540
Gene HP0464, lethal concentrations of V vs control
  log2 Fold Change HP0464: 0.429
Gene HP0465
  log2 Fold Change: -0.541
Gene HP0469
  log2 Fold Change: 1.295
Gene HP0472
  log2 Fold Change: 1.301
Gene HP0474, lethal concentrations of V vs control
  log2 Fold Change HP0474: 0.428
Gene HP0485, lethal concentrations of V vs control
  log2 Fold Change HP0485: 0.392
Gene HP0513, lethal concentrations of V vs control
  log2 Fold Change HP0513: 0.406
Gene HP0515, lethal concentrations of V vs control
  log2 Fold Change HP0515: 0.192
Gene HP0518
  log2 Fold Change: -0.587
Gene HP0536, lethal concentrations of V vs control
  log2 Fold Change HP0536: 0.397
Gene HP0537
  log2 Fold Change: -0.567
Gene HP0540, lethal concentrations of V vs control
  log2 Fold Change HP0540: 0.190
Gene HP0546, lethal concentrations of V vs control
  log2 Fold Change HP0546: 0.161
Gene HP0555
  log2 Fold Change: -0.497
Gene HP0563, lethal concentrations of V vs control
  log2 Fold Change HP0563: 0.320
Gene HP0568
  log2 Fold Change: -0.470
Gene HP0586, lethal concentrations of V vs control
  log2 Fold Change HP0586: 0.156
Gene HP0587, lethal concentrations of V vs control
  log2 Fold Change HP0587: 0.303
Gene HP0602, lethal concentrations of V vs control
  log2 Fold Change HP0602: 0.450
Gene HP0608
  log2 Fold Change: -0.470
Gene HP0613
  log2 Fold Change: 1.327
Gene HP0639, lethal concentrations of V vs control
  log2 Fold Change HP0639: 0.172
Gene HP0640, lethal concentrations of V vs control
  log2 Fold Change HP0640: 0.392
Gene HP0641
  log2 Fold Change: -0.474
Gene HP0642
  log2 Fold Change: -0.561
Gene HP0648
  log2 Fold Change: -0.611
Gene HP0650, lethal concentrations of V vs control
  log2 Fold Change HP0650: 0.145
Gene HP0652, lethal concentrations of V vs control
  log2 Fold Change HP0652: 0.477
Gene HP0660, lethal concentrations of V vs control
  log2 Fold Change HP0660: 0.172
Gene HP0670, lethal concentrations of V vs control
  log2 Fold Change HP0670: 0.376
Gene HP0680, lethal concentrations of V vs control
  log2 Fold Change HP0680: 0.219
Gene HP0692
  log2 Fold Change: 1.329
Gene HP0699, lethal concentrations of V vs control
  log2 Fold Change HP0699: 0.318
Gene HP0702
  log2 Fold Change: -0.528
Gene HP0709, lethal concentrations of V vs control
  log2 Fold Change HP0709: 0.245
Gene HP0734
  log2 Fold Change: -0.529
Gene HP0737
  log2 Fold Change: -0.509
Gene HP0741
  log2 Fold Change: -0.519
Gene HP0742, lethal concentrations of V vs control
  log2 Fold Change HP0742: 0.440
Gene HP0748, lethal concentrations of V vs control
  log2 Fold Change HP0748: 0.146
Gene HP0750, lethal concentrations of V vs control
  log2 Fold Change HP0750: 0.398
Gene HP0755
  log2 Fold Change: -0.518
Gene HP0759
  log2 Fold Change: 1.350
Gene HP0763, lethal concentrations of V vs control
  log2 Fold Change HP0763: 0.150
Gene HP0765
  log2 Fold Change: -0.541
Gene HP0772
  log2 Fold Change: -0.471
Gene HP0773, lethal concentrations of V vs control
  log2 Fold Change HP0773: 0.301
Gene HP0782, lethal concentrations of V vs control
  log2 Fold Change HP0782: 0.353
Gene HP0796, lethal concentrations of V vs control
  log2 Fold Change HP0796: 0.282
Gene HP0803, lethal concentrations of V vs control
  log2 Fold Change HP0803: 0.182
Gene HP0805, lethal concentrations of V vs control
  log2 Fold Change HP0805: 0.416
Gene HP0810
  log2 Fold Change: -0.532
Gene HP0819
  log2 Fold Change: -0.529
Gene HP0820, lethal concentrations of V vs control
  log2 Fold Change HP0820: 0.198
Gene HP0823, lethal concentrations of V vs control
  log2 Fold Change HP0823: 0.406
Gene HP0833, lethal concentrations of V vs control
  log2 Fold Change HP0833: 0.436
Gene HP0836, lethal concentrations of V vs control
  log2 Fold Change HP0836: 0.282
Gene HP0840
  log2 Fold Change: -0.593
Gene HP0858, lethal concentrations of V vs control
  log2 Fold Change HP0858: 0.348
Gene HP0861
  log2 Fold Change: -0.479
Gene HP0864, lethal concentrations of V vs control
  log2 Fold Change HP0864: 0.392
Gene HP0872, lethal concentrations of V vs control
  log2 Fold Change HP0872: 0.335
Gene HP0885
  log2 Fold Change: -0.551
Gene HP0890, lethal concentrations of V vs control
  log2 Fold Change HP0890: 0.409
Gene HP0897, lethal concentrations of V vs control
  log2 Fold Change HP0897: 0.220
Gene HP0898, lethal concentrations of V vs control
  log2 Fold Change HP0898: 0.196
Gene HP0900, lethal concentrations of V vs control
  log2 Fold Change HP0900: 0.416
Gene HP0909, lethal concentrations of V vs control
  log2 Fold Change HP0909: 0.281
Gene HP0916
  log2 Fold Change: -0.568
Gene HP0935
  log2 Fold Change: -0.494
Gene HP0936
  log2 Fold Change: -0.576
Gene HP0939
  log2 Fold Change: -0.568
Gene HP0946, lethal concentrations of V vs control
  log2 Fold Change HP0946: 0.226
Gene HP0948, lethal concentrations of V vs control
  log2 Fold Change HP0948: 0.237
Gene HP0949, lethal concentrations of V vs control
  log2 Fold Change HP0949: 0.337
Gene HP0953
  log2 Fold Change: -0.500
Gene HP0955, lethal concentrations of V vs control
  log2 Fold Change HP0955: 0.173
Gene HP0963, lethal concentrations of V vs control
  log2 Fold Change HP0963: 0.462
Gene HP0976, lethal concentrations of V vs control
  log2 Fold Change HP0976: 0.322
